Data reported in patent US6281222A (Inotek Corporation, priority 2000, dated 2001).
Entries after “also recorded” stand apart in the source; their conditions may differ.

Columns and labels:
[1] = system: acetaminophen-induced increases in ALT plasma levels; experiment: Serum/plasma ALT levels with different frequencies and starting points of AHPP or NAC treatment (FIG. 2); assay type: in vivo, rats
Text: The effectiveness of AHPP when given at various frequencies and starting points of administration was also examined. […] Serum ALT levels in rats were then examined
The bars from the left to the right represent the following groups: […]

[2] = Survival after severe acetaminophen intoxication, fasted 36 hours (FIG. 3); assay type: in vivo, mice; conditions: mouse, in vivo, ip; 350 mg/kg i.p., fasted 36 hours, by 8 hours
[3] = system: acetaminophen-intoxicated mice; experiment: as above; assay type: in vivo
[4] = system: acetaminophen-induced liver injury; experiment: Plasma ALT and AST release after acetaminophen, with simultaneous AHPP treatment (FIGS. 1A and 1B); assay type: in vivo, rats; conditions: AHPP 50 mg/kg q8h per gavage, simultaneous with acetaminophen 350 mg/kg i.p.
Method: The effect of AHPP on the release of ALT and AST in plasma was examined. […] The effect of AHPP is measured by the release of AST and ALT in rats.

[5] = system: liver tissues (centrilobular injury); experiment: Histological injury score in the liver; assay type: in vivo, rats
Method: Scoring was performed by two independent investigators who were blinded to the treatment regimen. The following grading system was used: 0--normal liver, no signs of injury; 1--rare areas of centrilobular injury; 2--moderate injury involving many centrilobular areas; 3--extensive centrilobular necrosis; 4--massive hepatic injury involving all centrilobular areas and beyond.

[6] = system: acetaminophen-induced liver injury; experiment: Minimally effective AHPP dose: reduction in serum ALT; assay type: in vivo
[7] = system: acetaminophen-induced mortality; experiment: Dose response survival study; assay type: in vivo; conditions: for protective effect / survival: 24 hours; for survival rate: vehicle 25%; for survival: vehicle 0%
Method: The minimally effective dose of AHPP was examined. Criteria for an effective dose included ability to suppress liver injury and protect against acetaminophen-induced mortality. […] Although the effect was only partial, ALT levels were reduced by 56±16% (n=8; p<0.05).
In order to validate the significance of the above mentioned reductions in serum transaminases, a dose response survival study was also performed. […] Survival rate was 25% in the vehicle treated group, and improved to 87% with 3 mg/kg and 10 mg/kg q8h doses. […] For the survival studies, n=8-10 animals per group. […] The effective dose range lays between 10 and 50 mg/kg of AHPP q8h per enteral gavage.

[8] = Preliminary toxicity study, enteral administration; assay type: in vivo, mice; conditions: enteral gavage up to 1000 mg/kg (300, 500, 1000 mg/kg), 24 h, n=8 per group
Method: Preliminary toxicity studies were performed with AHPP to estimate the expected therapeutic ratio of the compound.

[9] = 50 mg/kg enterally, 4 h post-acetaminophen

CC(=O)N[C@@H](CS)C(=O)O [N-acetyl-cysteine, reference compound]
protective effect, co-treatment (0 h) ([1]; 50 mg/kg enterally at time of acetaminophen injection): significantly protective | degree of liver injury, 4 h post-treatment [1, 9]: exacerbated the degree of liver injury | protective effect, 4 h post-treatment [1, 9]: lost its protective effect

CC(=O)Nc1ccc(O)cc1 [acetaminophen, reference compound]
mortality at 8 h [2]: 75% | onset of lethality ([3]; 350 mg/kg i.p., fasted 36 hours): 2 h

Nc1nc(O)nc2[nH]ncc12 [AHPP, 4-Amino-6-hydroxypyrazolo[3,4-d]pyrimidine]
degree of liver injury, as assessed by release of ALT and AST [4]: significantly reduced the degree of liver injury | median histological injury score ([5]; AHPP+Acetaminophen, scale 0 (normal liver) to 4 (massive hepatic injury), p<0.05): 2.1 | histological injury in the liver ([5]; response to AHPP treatment, in words): significant attenuation of the histological injury | protective effect, 8 h+16 h ([1]; 50 mg/kg enteral gavage at 8 h and 16 h post-acetaminophen): significant protective effects | effect on ALT levels, 4 h post-treatment ([1]; 50 mg/kg enterally, 4 h post-acetaminophen, no supplemental doses): reduced | ALT levels vs acetaminophen alone ([1]; concurrent with, or subsequent to acetaminophen): lowered ALT levels | enteral uptake ([1]; inferred from efficacy via gavage, 24 h protocol): sufficient enteral uptake | effect of timing and frequency of administration ([1]; start close in time to acetaminophen, followed by additional treatments at 8 h interval): most effective | hepatoprotection, conclusion ([1]; summary of data): advantageously compares to NAC as a hepatoprotective agent; also recorded: effective via an enteral delivery route; also recorded: effective both as a co-treatment and in delayed post-treatment regimens | protection / survival ([3]; AHPP 30 mg/kg q8h gavage, simultaneous with acetaminophen 350 mg/kg i.p.): markedly protective; also recorded: dramatically prolonged survival | protective effect ([6]; 3 mg/kg q8h per enteral gavage): significant protection | reduction in ALT levels ([6]; 3 mg/kg q8h per enteral gavage, n=8, p<0.05): 56±16% | efficacy relative to 50 mg/kg dose ([6]; 10 mg/kg q8h per enteral gavage): equivalent in efficacy to the 50 mg/kg dose | reduction in serum ALT concentration ([6]; 10 mg/kg q8h per enteral gavage, n=7, p<0.01): 89% | protective effect ([7]; 3 mg/kg q8h): lost its protective effect | survival rate ([7]; 3 mg/kg q8h enteral gavage, 8 hours): 87% | survival ([7]; 3 mg/kg q8h enteral gavage): 0% | protective effect ([7]; 10 mg/kg q8h): maintained its protective effect | survival rate ([7]; 10 mg/kg q8h enteral gavage, 8 hours): 87% | survival ([7]; 10 mg/kg q8h enteral gavage): 63% | protection against mortality ([7]; 3 and 10 mg/kg q8h enteral gavage, 8 hours): significantly protected against mortality | mortality or behavioral or histological alterations [8]: did not result in mortality or behavioral or histological alterations
